{
  "source": "patent US20120129189A1",
  "about": "“Methods of Controlling Cell Proliferation” (priority 2009, published 2012)",
  "key": {"[1]": {"tested_on": "Notch/RBP-J activity in SW480 cells", "experiment": "Notch/RBP-J-dependent luciferase activity in SW480 cells", "assay_type": "cell-based, human", "settings": "SW480, increasing doses of Ibuprofen", "procedure": "(§1) For Notch, RBP-J or Numb/Numbl knockdown experiments, Notch1-4, RBPSUH or Numb/Numbl On-TARGETplus SMARTpool (Dharmacon L-041110, L-044202, L-047867, L-046498, L-007772 or L-046935/L-046983) or Block-iT Alexa Fluor Red (46-5, 318, Invitrogen) was used at concentrations of 50, 100, or 200 nM for cell transfection. Tethered and truncated forms of Notch1 constructs were kindly provided by Drs. R. Kopan (Washington University, St. Louis, Mo.) and M. Nakafuku (Cincinnati Children's Hospital, Cincinnati, Ohio), respectively. Cells were transfected with Lipofectamine LTX (Invitrogen) or Lipofectamine 2000 (Invitrogen) in single-cell suspensions. For gene expression analysis, qPCR was performed with the ABI Prism system (7900HT, Applied Biosystems) with the following primers: β-Catenin (Mm01350394_m1), Cyclin D1 (Mm00432359_m1), Gapdh (Mm99999915_g1). All samples were run at least in triplicate. Real-time quantitative PCR data were normalized and standardized with SDS2.2 software. […]\n(§2) FIGS. 5A-I. γ-Secretase Inhibitors (GSIs) Suppress Expansion of Human Colon Cancer Cells by Blocking Notch Cleavage (A) Western analysis of active β-Catenin in SW480 colon cancer cells transfected with control or siRNA against Notch1-4 (100 nM each). […] Notch/RBP-J activity was measured by transfecting cells with a luciferase reporter downstream of multiple RBP-J sites. […]"}, "β-Catenin in SW480 cells": {"tested_on": "β-Catenin in SW480 cells", "experiment": "Western analysis of β-Catenin in SW480 cells", "assay_type": "cell-based, human", "procedure": "(§3) Cells were scraped off the 100-mm dish and lysed in 1 ml of lysis buffer (1 mM PMSF, 1 mM EDTA, 10 mM Tris-HCl, 0.1% Triton X100, 1× Complete Protease Inhibitor Cocktail (Roche) in PBS). The lysates were spun down, and 1 μg of anti-c-Myc antibody (Sigma, M4439) or anti-Flag antibody (Sigma, F1804) was added to 500 μl of the supernatant. A 50-50 mixture of protein A Sepharose (Amersham) and protein G Sepharose (Amersham) was added to the lysate/antibody mixture for immunoprecipitation for 1 hour. The resulting outputs were washed with lysis buffer and subjected to western blot analysis. For western blotting, samples were analyzed using antibodies against active-β-Catenin (anti-ABC, Millipore), phospho-β-Catenin (Ser33/37/Thr41, Cell Signaling), β-Catenin (sc-1496, Santa Cruz Biotechnology) and Gapdh (Santa Cruz Biotechnology).\n(§4) FIGS. 5A-I. γ-Secretase Inhibitors (GSIs) Suppress Expansion of Human Colon Cancer Cells by Blocking Notch Cleavage (A) Western analysis of active β-Catenin in SW480 colon cancer cells transfected with control or siRNA against Notch1-4 (100 nM each). (B) Relative β-Catenin/TCF activity of SW480 cells treated with increasing doses of DAPT for 96 h. (C) Western analysis of β-Catenin levels in SW480 and a second colon cancer cell line, HT-29, treated with increasing doses (0, 25, 50 or 100 μM) of DAPT for 96 h. (D) Relative number of SW480 cells treated with DAPT (50 or 100 μM) for 72 h. (E) Western analysis of active β-Catenin levels in SW480 cells with increasing DAPT in the presence or absence of proteasome inhibitor (PI) MG-132 (5 nM) for 72 h. […] (F) Notch/RBP-J activity of SW480 cells treated with increasing doses of Ibuprofen. Notch/RBP-J activity was measured by transfecting cells with a luciferase reporter downstream of multiple RBP-J sites. (G) Relative β-Catenin/TCF activity of SW480 cells treated with Ibuprofen for 72 h. (H) Western analysis of active β-Catenin in SW480 cells treated with Ibuprofen for 72 h. (I) Western analysis of active β-Catenin in SW480 cells transfected with Notch1-4 (100 nM each) siRNA and treated with or without ibuprofen. Gapdh antibody was used as a loading control. All luciferase values were normalized to Renilla activity and represent n=4. *, P<0.01. Con, control; N1-4 KD, Notch 1-4 siRNA."}, "[2]": {"tested_on": "β-Catenin/TCF activity in SW480 cells", "experiment": "β-Catenin/TCF luciferase activity in SW480 cells", "assay_type": "cell-based, human", "procedure": "as §1, §2"}, "ESCs": {"tested_on": "ESCs", "experiment": "Relative number of ESCs after treatment", "assay_type": "cell-based", "settings": "DAPT 50 or 100 μM, 48 h", "text": "(§5) FIGS. 3A-I. Membrane-Bound Notch Negatively Regulates Active β-Catenin Levels in Stem Cells (A) Schematic representation of wildtype Notch1 and cleavage site-mutated tethered forms of Notch1 (V1744K and V1774L). […] (C) BIO-treated ESCs transfected with WT or mutant Notch1 constructs and, immunoprecipitated (IP) with anti-Myc antibody and immunoblotted (IB) with β-Catenin antibody. Notch1 expression was detected with anti-Myc antibody. Arrowheads indicate cleaved Notch1. (D) Western analysis of active β-Catenin in ESCs transfected with WT or mutant Notch1 constructs. (E) Relative β-Catenin/TCF activity of ESCs and NSCs treated with increasing doses of DAPT for 72-96 h. (F) Western analysis of active β-Catenin in ESCs, NSCs, and bone marrow mesenchymal stem cells (MSCs) treated with increasing doses (0, 25, 50 or 100 μM) of DAPT for 72-96 h. (G) Relative number of ESCs after treatment with DAPT (50 or 100 μM) for 48 h. (H) Relative expression of Cyclin D1 mRNA in ESCs transfected with control (LacZ) or tethered Notch (V1774L) and cultured for 72 h. (I) Relative expression of Brachyury, Nestin and Sox17 mRNA in ESCs maintained without LIF for 72 h after transfection with control (LacZ) or tethered Notch (V1774L); *, P<0.01; NS, not significant. […] Con, control."}, "[3]": {"tested_on": "β-Catenin/TCF activity in ESCs", "experiment": "β-Catenin/TCF-directed luciferase reporter (Topflash) in ESCs", "assay_type": "cell-based", "settings": "increasing doses of DAPT, 72-96 h", "procedure": "as §1, with “For gene expression analysis, qPCR was performed with the ABI Prism system (7900HT, Applied Biosystems) with the following primers: β-Catenin (Mm01350394_m1), Cyclin D1 (Mm00432359_m1), Gapdh (Mm99999915_g1). All samples were run at least in triplicate.” left out\nFIGS. 1A-F. Notch Negatively Regulates Active β-Catenin in Stem Cells Independently of RBP-J (A) Western analysis of ESCs transfected with control or Notch1 (N1) siRNA (50 or 100 nM) with active β-Catenin (Act β-Cat) antibody that detects N-terminal-dephosphorylated β-Catenin. (B and C) Relative β-Catenin/TCF-directed luciferase activity in ESCs (B) or neural stem cells (NSCs) (C) transfected with control siRNA or siRNA against Notch1 or Notch1-4. β-Catenin/TCF activity was measured by co-transfecting cells with a luciferase reporter downstream of multiple TCF binding sites (Topflash). […]"}, "SW480 cells": {"tested_on": "SW480 cells", "experiment": "Relative number of SW480 cells (cell expansion)", "assay_type": "cell-based, human", "settings": "SW480 (FIG. 5D), DAPT 50 or 100 μM, 72 h; text names SW480 and HT-29", "procedure": "as §4, with “Con, control; N1-4 KD, Notch 1-4 siRNA.” left out"}, "β-Catenin in HT-29 cells": {"tested_on": "β-Catenin in HT-29 cells", "experiment": "Western analysis of β-Catenin in HT-29 cells", "assay_type": "cell-based, human", "settings": "HT-29, DAPT 0, 25, 50 or 100 μM, 96 h", "procedure": "as §3\nas §2, with “each). (B) Relative β-Catenin/TCF activity of SW480 cells treated with increasing doses of DAPT for 96 h.” for “each).”"}, "[4]": {"tested_on": "hESCs, NSCs and bone marrow mesenchymal stem cells", "experiment": "β-Catenin activity and protein in other stem cells", "assay_type": "cell-based", "settings": "increasing doses of DAPT, 72-96 h", "text": "as §5"}, "active β-Catenin in ESCs": {"tested_on": "active β-Catenin in ESCs", "experiment": "Western analysis of active β-Catenin in ESCs", "assay_type": "cell-based", "description": "Gapdh antibody was used as a loading control. h, head; ht, heart tube; Con, control; N1 KD, Notch1 siRNA; N1-4 KD, Notch 1-4 siRNA."}},
  "note": "Peptide text beside a SMILES is read from it. * marks the point of attachment. Cbz = O=C(OCc1ccccc1)*",
  "data": [
    {"molecule": "CC(C)Cc1ccc(C(C)C(=O)O)cc1", "note": "(centres unmarked) [Ibuprofen]", "values": [
      {"measurement": "canonical Notch transcriptional activity (Notch/RBP-J-dependent luciferase activity)", "setting": "[1]", "result": "dose-dependent decrease"},
      {"measurement": "active β-Catenin protein", "setting": "β-Catenin in SW480 cells; SW480, Ibuprofen, 72 h", "result": "lowered"},
      {"measurement": "reduction of β-Catenin protein levels after knockdown of Notch1-4", "setting": "β-Catenin in SW480 cells; SW480 transfected with Notch1-4 siRNA (100 nM each), with or without ibuprofen", "result": "not observed"},
      {"measurement": "active β-Catenin transcriptional activity", "setting": "[2]; SW480, Ibuprofen, 72 h", "result": "lowered"}
    ]},
    {"molecule": "C[C@H](NC(=O)Cc1cc(F)cc(F)c1)C(=O)N[C@H](C(=O)OC(C)(C)C)c1ccccc1", "note": "[DAPT, N—[N-(3,5-difluorophenacetyl)-L-alanyl]-S-phenylglycine t-butyl ester]", "values": [
      {"measurement": "β-Catenin protein", "setting": "β-Catenin in SW480 cells; SW480, DAPT 0, 25, 50 or 100 μM, 96 h", "result": "dose-dependent decrease"},
      {"measurement": "cell numbers", "setting": "ESCs", "result": "significant decrease"},
      {"measurement": "TCF/β-Catenin-dependent transcriptional activity", "setting": "[2]; SW480 (FIG. 5B), increasing doses of DAPT, 96 h, text names SW480 and HT-29", "result": "dose-dependent decrease"},
      {"measurement": "active β-Catenin activity (relative β-Catenin/TCF activity)", "setting": "[3]", "result": "significant reduction"},
      {"measurement": "cell expansion (relative cell number)", "setting": "SW480 cells", "result": "dose-dependent decrease"},
      {"measurement": "β-Catenin protein", "setting": "β-Catenin in HT-29 cells", "result": "dose-dependent decrease"},
      {"measurement": "active β-Catenin activity and protein levels", "setting": "[4]", "result": "trend was also observed"},
      {"measurement": "active β-Catenin protein levels", "setting": "active β-Catenin in ESCs; DAPT 0, 25, 50 or 100 μM, 72-96 h", "result": "significant reduction"}
    ]},
    {"molecule": "CC(C)C[C@@H](C=O)NC(=O)[C@H](CC(C)C)NC(=O)[C@H](CC(C)C)NC(=O)OCc1ccccc1", "note": "[MG-132] (Cbz-Leu-Leu-Leu-aldehyde)", "values": [
      {"measurement": "active β-Catenin levels", "setting": "β-Catenin in SW480 cells; SW480, proteasome inhibitor MG-132 (5 nM), 72 h", "result": "higher levels of β-Catenin"}
    ]},
    {"molecule": "O=C1Nc2cc(Br)ccc2/C1=C1/Nc2ccccc2/C1=N\\O", "note": "[BIO, 6-bromoindirubin-3′-oxime]", "values": [
      {"measurement": "active β-Catenin levels", "setting": "active β-Catenin in ESCs; BIO 2 μM", "result": "greatly increases"}
    ]}
  ]
}
